From patent US20260009064A1, “STEROL PRODUCTION IN YEAST” (APIX BIOSCIENCES, priority 2021, published 2026) come the findings set out here.

For the data set, the system named is managed honeybee colonies. Kind of data set: Artificial diets with dried engineered yeast powder fed to managed honeybee colonies (APIDEA hives, three months). The following applies: inferred from platform strain diet versus wild-type yeast diet. Format: in vivo. The protocol:
Yeast strains ST4842 (wild-type, containing ergosterol), ST11005 (platform strain engineered to produce tetrahymanol, containing ergosterol and tetrahymanol) and ST12178 (mixed sterol producing strain producing desired phytosterols and tetrahymanol) were cultivated by 5-L fed-batch fermentation as described above. At the end of fermentation, the yeast biomass was recovered from the culture by centrifugation (4000×g, 20 min) and washed with deionized water. The biomass was heat-inactivated and dried (60° C. for a minimum of 24 h). The dried material was ground to a fine powder and stored at −20° C. until further use.
The yeast biomass was then incorporated at 20% w/w into a holidic diet designed to provide additional protein, lipid, sugar, vitamins and minerals. […]
Honeybee colonies were maintained for three months in APIDEA hives (Styrofoam queen mating mini nucleus hives, (Paynes Southdown Bee Farms Ltd, West Sussex. UK) made up of one brood box with five frames and a top feeder with a hole for petty delivery. Hives were maintained within a closed glasshouse environment designed to negate bee escape. Hives were distributed across two rooms of the glasshouse, with varying orientation. Feeders with 30% w/v sugar solution and water were distributed inside the glasshouse and replenished as required. Regular temperature and humidity measurements were recorded on a datalogger. […]

Consider `CC1(C)CCC[C@]2(C)[C@H]3CC[C@@H]4[C@@]5(C)CC[C@H](O)C(C)(C)[C@@H]5CC[C@@]4(C)[C@]3(C)CC[C@@H]12` [tetrahymanol], for which the “adverse effects in honeybee colonies” value was “does not have adverse effects”.
